Here are results for 4 compounds from ChEMBL document CHEMBL5518165, “M335, a novel small-molecule STING agonist activates the immune response and exerts antitumor effects” (Eur J Med Chem, 2024).

Calls of active or inactive are those of the source. The rule behind the calls is not given here.

In test [1] the target is T1, Stimulator of interferon genes protein (Mus musculus) (UniProt Q3TBT3).
T1 sequence (whole entry): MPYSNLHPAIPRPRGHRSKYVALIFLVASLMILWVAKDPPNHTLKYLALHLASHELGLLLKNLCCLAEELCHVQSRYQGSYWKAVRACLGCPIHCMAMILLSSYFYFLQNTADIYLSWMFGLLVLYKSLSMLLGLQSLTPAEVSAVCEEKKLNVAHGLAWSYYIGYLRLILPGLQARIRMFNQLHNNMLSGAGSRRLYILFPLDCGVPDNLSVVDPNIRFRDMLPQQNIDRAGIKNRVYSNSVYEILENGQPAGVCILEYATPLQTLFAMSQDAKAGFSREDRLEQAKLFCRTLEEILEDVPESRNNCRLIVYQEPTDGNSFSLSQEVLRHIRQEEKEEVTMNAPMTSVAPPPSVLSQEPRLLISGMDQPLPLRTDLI
In words: Agonist activity at STING in MEF cells assessed as increase in STING oligomerization by Western blotting analysis. Format: cell-based. The note with it: filed as agonist. Background: In western blotting, separated proteins are transferred to a membrane and probed.

Test [2] relates to Human alphaherpesvirus 1. In words: Antiviral activity against HSV-1-GFP infected in human STING-deficient WT HeLa cells assessed as reduction in viral infection by fluorescent microscopy analysis. It is filed as functional, organism-based.
Test [3] addresses T1, Stimulator of interferon genes protein (Mus musculus). As to the kind of experiment: Agonist activity at STING in MEF cells assessed as STING translocation to golgi apparatus by measuring increase in red fluorescence incubated for 1 hr by laser scanning confocal microscope analysis. Format: cell-based. The note with it: filed as agonist.
Test [4] shares this target. As to the kind of experiment: Agonist activity at STING in MEF cells assessed as nuclear transposition of phosphorylated IRF3 incubated for 1 hr by laser scanning confocal microscope analysis. It is filed as cell-based. The note with it: filed as agonist.
Test [5] has the same target. As to the kind of experiment: Agonist activity at STING in MEF cells assessed as STING translocation by measuring aggregation of green fluorescence incubated for 1 hr by laser scanning confocal microscope analysis. It is filed as cell-based. The note with it: filed as agonist.
In test [6] the target is Stimulator of interferon genes protein (Homo sapiens) (UniProt Q86WV6). As to the kind of experiment: Agonist activity at STING in human THP-1 cells assessed as increase in LC3 protein level by Western blotting analysis. It is filed as cell-based.
The target is the same in test [7]. As to the kind of experiment: Agonist activity at STING in human THP-1 cells assessed as increase in TBK1 phosphorylation by Western blotting analysis. It is filed as cell-based.
For test [8] the target is unchanged. In words: Agonist activity at STING in human THP-1 cells assessed as increase in IRF3 phosphorylation by Western blotting analysis. It is filed as cell-based.

Stimulator of interferon genes protein (Homo sapiens), sequence (Q86WV6 whole entry): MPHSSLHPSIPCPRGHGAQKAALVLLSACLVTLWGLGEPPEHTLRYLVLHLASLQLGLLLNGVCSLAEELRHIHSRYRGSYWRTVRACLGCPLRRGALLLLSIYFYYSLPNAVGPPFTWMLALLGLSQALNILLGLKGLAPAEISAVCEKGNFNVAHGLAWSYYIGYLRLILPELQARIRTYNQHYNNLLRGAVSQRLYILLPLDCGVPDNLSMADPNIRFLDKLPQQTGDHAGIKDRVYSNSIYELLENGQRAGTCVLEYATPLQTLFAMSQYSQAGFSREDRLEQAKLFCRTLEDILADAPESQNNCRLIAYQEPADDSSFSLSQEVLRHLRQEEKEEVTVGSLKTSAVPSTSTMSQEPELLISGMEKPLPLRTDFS

As to `Nc1nc2c(ncn2[C@@H]2O[C@@H]3COP(=O)(O)O[C@H]4[C@@H](O)[C@H](n5cnc6c(N)ncnc65)O[C@@H]4COP(=O)(O)O[C@@H]2[C@@H]3O)c(=O)[nH]1`, the result in test [1], in test [3], in test [4] and in test [5] was Active. Besides, the outcome in test [2] was inactive.
As to `CC(NC(=O)CC(c1ccccc1)c1ccccc1)c1ccccc1` (centres undefined), the outcome in test [6], in test [7] and in test [8] was inactive.
`C[C@@H](NCCC(c1ccccc1)c1ccccc1)c1ccccc1`: the outcome in test [6], in test [7] and in test [8] was inactive.
On to `C[C@H](NCCC(c1ccccc1)c1ccccc1)c1ccccc1`, for which the outcome in test [6], in test [7] and in test [8] was inactive.
